Measurements as given in patent US20040242461A1, “Modulators of telomere stability” (priority 2003, published 2004).
Entries after “also recorded” stand apart in the source; their conditions may differ. One block for each compound: values may come before it.

Experiments:
[1] = tested on: poly (ADP-ribose) polymerase (PARP); test: PARP cleavage by Western blot after antisense transfection of mouse cardiomyocytes; assay type: cell-based; details: reduction of endogenous TRF2
From the text: (§1) The sequences used were: antisense TRF2 (asTRF2), 5′-[…]-3′ (SEQ ID NO:21); sense TRF2 (sTRF2), 5′-[…]-3′ (SEQ ID NO:22), antisense GFP (Sano, M. et al., 2002), 5′-[…]-3′ (SEQ ID NO:23). Oligonucleotides were transfected into 1-2 day-old C57BI/6 mouse cardiomyocytes, cultured as above, using Oligofectamine (Invitrogen).
(§2) Proteins were resolved by electrophoresis in 10% SDS-polyacrylamide gels and transferred to membranes by electroblotting. Antibodies were: human and mouse TRF2 (Calbiochem), human and mouse TRF1 (Calbiochem), phospho-Chk2 (Thr68; Cell Signaling), sarcomeric a-actin and myc (Sigmna), FLAG epitope (M2, Kodak), GFP (Clontech), Chk2 (Santa Cruz), poly (ADP-ribose) polymerase (PARP, Oncogene). To detect exogenous TRF2 in virus infected cardiomyocytes, goat and rabbit antibodies to TRF2 were used (C-16, H-300, Santa Cruz); endogenous rat TRF2 was detected using rabbit antibody to TRF2 (Alpha Diagnostic International). After blocking with 5% non-fat milk plus 0.1% Tween-20, blots were incubated with primary antibodies (1:500), horseradish peroxidase-conjugated secondary antibodies (1:3000; Amersham Pharmacia Biotech), and enhanced chemiluminescence reagents (Amersham Pharmacia Biotech).

[2] = tested on: C57BI/6 mouse cardiomyocytes; test: Apoptosis by flow cytometry after antisense transfection of mouse cardiomyocytes; assay type: cell-based; details: reduction of endogenous TRF2
From the text: as §1
Hypodiploid DNA was detected by two-color flow cytometry using propidium iodide for DNA content and FITC-conjugated MF20 (Oh, H. et al., 2001; Akli, S. et al., 1999) or FITC-conjugated antibody to sarcomeric myosin heavy chains to confirm myocyte identity, sampling>5000 myocytes for each histogram.

[3] = target: T1, HGK (Homo sapiens, UniProt O95819); test: HGK immune complex kinase assay (recombinant FLAG-HGK in cardiomyocytes); assay type: cell-based; details: for HGK activity after agonist: 50 μg/ml C2-ceramide, 200 μM H2O2
T1 construct: expressed in transfected cells
T1 sequence (O95819 whole entry): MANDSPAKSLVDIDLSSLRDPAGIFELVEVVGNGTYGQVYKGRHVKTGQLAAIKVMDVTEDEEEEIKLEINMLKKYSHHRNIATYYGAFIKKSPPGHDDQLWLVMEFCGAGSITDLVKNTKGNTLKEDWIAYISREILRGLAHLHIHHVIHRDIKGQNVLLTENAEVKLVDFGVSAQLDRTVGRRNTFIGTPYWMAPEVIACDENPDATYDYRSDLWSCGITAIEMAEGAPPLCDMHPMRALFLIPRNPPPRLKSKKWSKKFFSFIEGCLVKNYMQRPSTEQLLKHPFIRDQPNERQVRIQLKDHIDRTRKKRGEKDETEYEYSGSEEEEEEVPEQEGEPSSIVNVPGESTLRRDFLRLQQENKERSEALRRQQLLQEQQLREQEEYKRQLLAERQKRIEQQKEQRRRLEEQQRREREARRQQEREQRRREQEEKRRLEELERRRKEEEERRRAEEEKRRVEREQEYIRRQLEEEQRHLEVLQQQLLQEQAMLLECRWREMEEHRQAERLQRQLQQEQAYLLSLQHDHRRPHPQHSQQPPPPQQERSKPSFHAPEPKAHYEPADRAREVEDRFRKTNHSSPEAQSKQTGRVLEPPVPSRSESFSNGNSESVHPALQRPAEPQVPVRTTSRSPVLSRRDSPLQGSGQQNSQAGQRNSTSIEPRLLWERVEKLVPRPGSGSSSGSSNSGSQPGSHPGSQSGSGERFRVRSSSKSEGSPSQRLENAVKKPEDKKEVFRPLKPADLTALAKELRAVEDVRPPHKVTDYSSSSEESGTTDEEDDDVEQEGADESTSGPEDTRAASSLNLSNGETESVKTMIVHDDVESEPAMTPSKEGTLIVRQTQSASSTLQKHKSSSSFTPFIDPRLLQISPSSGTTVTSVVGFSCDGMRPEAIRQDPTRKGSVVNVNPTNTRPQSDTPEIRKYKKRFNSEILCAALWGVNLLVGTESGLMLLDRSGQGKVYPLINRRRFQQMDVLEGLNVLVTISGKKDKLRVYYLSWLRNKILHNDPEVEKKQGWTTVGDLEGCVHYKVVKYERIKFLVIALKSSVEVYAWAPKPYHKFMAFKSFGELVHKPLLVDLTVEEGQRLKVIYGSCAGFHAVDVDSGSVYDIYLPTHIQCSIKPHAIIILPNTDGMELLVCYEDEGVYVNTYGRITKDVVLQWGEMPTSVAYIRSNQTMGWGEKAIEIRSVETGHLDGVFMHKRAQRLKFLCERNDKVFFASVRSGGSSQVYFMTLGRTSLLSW
From the text: HGK was alternatively spliced, with the presence or absence of an SH3-like domain being one potentially important difference. […] Dominant-negative, FLAG-tagged JNK1 (JNK1 APF). Viruses were engineered using pAd-Easy-1 and pShuttleCMV. Adenoviruses encoding wild-type and dominant-negative TRF2 were constructed analogously (Oh et al., 2003), using cDNAs.
For HGK immune complex kinase assays, recombinant HGK was precipitated using M2 antibody and protein G-Sepharose, in the lysis buffer above. Precipitates were washed twice in lysis buffer, twice with 500 mM LiCl, 100 mM Tris-HCl, pH 7.6, 0.1% Triton X-100, and twice with kinase buffer (20 mM MOPS, pH 7.6, 2 mM EGTA, 10 mM MgCl2, 1 mM dithiothreitol, 0.1% Triton X-100, 1 mM Na3VO4), then were mixed with 10 μg of myelin basic protein (MBP) (Invitrogen, Carlsbad, Calif.), as substrate, 15 μM ATP, and 10 μCi [γ-^32P]ATP in 30 μl of kinase buffer for 30 min at 30° C. (Yao et al., 1999). Reaction mixtures were resolved by SDS-polyacrylamide gel electrophoresis, then were analysed by autoradiography and Western blotting as above.

[4] = tested on: Chk2; test: Chk2 immune complex kinase assay after antisense transfection of mouse cardiomyocytes; assay type: cell-based; details: reduction of endogenous TRF2
Description: as §1
To assay Chk2 activity, samples were lysed in 20 mM Tris-HCl (pH 8.0), 0.1% Triton X-100, 10 mM NaF, 1 mM NaVa3VO4, […], 1 mM PMSF, then incubated for 1 hr with antibody to Chk2 and protein A/G-Sepharose (Pharmacia). lmrunoprecipitates were washed and assayed in the presence of 30 μM CHKtide substrate peptide ([…] (SEQ ID NO:24), Upstate Biotechnology, Inc), 40 μM adenosine triphosphate, 15 μCi [γ-^32P]ATP, for 30 min at 30° C. Proteins were resolved by electrophoresis in SDS-polyacrylamide gels and visualized by autoradiography. Aliquots of Chk2 immunoprecipitates were also used for Western blotting, allowing activity and content to be compared in the same samples.

[5] = tested on: TRF2; test: Western blot of TRF2 after antisense oligonucleotide transfection of mouse cardiomyocytes; assay type: cell-based; details: Oligofectamine transfection
From the text: as §1, §2

[6] = tested on: telomere length; test: Telomere length by Southern blot after antisense transfection of mouse cardiomyocytes; assay type: cell-based; details: reduction of endogenous TRF2
From the text: as §1
(§3) DNA was digested with Rsa I, resolved by electrophoresis in 0.5% agarose, transferred to Hybond-N^+ membranes (Amersham Pharmacia Biotech), and hybridized using a ^32P-labeled (TTAGGG)4 telomeric probe (Oh, H. et al., 2001; Counter, C. M., 1992). Mean telomere length was ascertained by Phosphor-Imager scanning (Molecular Dynamics).

[7] = tested on: TRF2; test: Endogenous TRF2 expression in NIH 3T3 cells after antisense oligonucleotide; assay type: cell-based, mouse; details: NIH 3T3 cells (not shown)
[8] = tested on: telomere length; test: Telomere length by Southern blot with telomeric probe in cultured cardiomyocytes; assay type: cell-based, rat; details: gene transfer or treatment
From the text: as §3

[9] = tested on: poly (ADP-ribose) polymerase (PARP); test: PARP cleavage / total PARP by Western blot in cultured cardiomyocytes; assay type: cell-based, rat
From the text: as §2
Cells were lysed in 20 mM HEPES, pH 7.4, 2 mM EGTA, 50 mM glycerophosphate, 1% Triton X-100, 10% glycerol, 1 mM dithiothreitol, 2 μg/ml leupeptin, 5 μg/ml aprotinin, 1 mM phenylmethylsulfonyl fluoride, 1 mM Na3VO4. Lysates were resolved by SDS-polyacrylamide gel electrophoresis and transferred to optitran (Schleicher & Schuell, Keene, N.H.) membranes for Western blotting. […]

[10] = tested on: TRF2; test: Western blot of TRF2 protein levels in cultured cardiomyocytes; assay type: cell-based, rat
From the text: Ventricular myocytes from 2 day-old Sprague-Dawley rats were purified and cultured (Oh, H. et al., 2001; Akli, S. et al., 1999); by this age, ventricular myocytes become refractory to serum-induced Gl exit, after initial serum-starvation in vitro (Akli, S. et al., 1999). Plasmids for human TRF1, TRF2, and the corresponding dominant-negative truncations (TRF1DM, TRF2DBDM) were provided by Dr. Titia de Lange (Rockefeller University) (Karlseder, J. et al., 1999). Adenoviruses coexpressing enhanced green fluorescent protein (eGFP) were generated using pAdTrack-cytomegalovirus (CMV) and pShuttle-CMV (provided by Dr. Bert Vogelstein, Johns Hopkins Oncology Center) (Oh, H. et al., 2001; He, T. C., 1998). Myocytes were infected using a multiplicity of infection of 20. To visualize TRF1/2 after gene transfer, myocytes were fixed in 70% ethanol, then incubated sequentially with tetramethyl rhodamine isothiocyanate-conjugated MF-20 antibody to sarcomeric myosin heavy chains to confirm cell type (University of Iowa Hybridoma Bank), rabbit antibodies to TRF1 and TRF2 (#581420 and 581425; 1:500, Calbiochem) and fluorescein isothiocyanate (FITC)-conjugated goat antibody to rabbit IgG (1:1000, Sigma). Nuclei were stained with 4′,6-diamidino-2-phenylindole (DAPI). Images were captured using a Zeiss Axioplan 2 epifluorescence microscope.
as §2, with “After blocking with 5% non-fat milk plus 0.1% Tween-20, blots were incubated with primary antibodies (1:500), horseradish peroxidase-conjugated secondary antibodies (1:3000; Amersham Pharmacia Biotech), and enhanced chemiluminescence reagents (Amersham Pharmacia Biotech).” left out

[11] = tested on: cardiomyocytes; test: Apoptosis as hypodiploid DNA by two-color flow cytometry in cultured cardiomyocytes; assay type: cell-based, rat
From the text: Myocytes were infected using a multiplicity of infection of 20. […] Nuclei were stained with 4′,6-diamidino-2-phenylindole (DAPI). Images were captured using a Zeiss Axioplan 2 epifluorescence microscope.
Ventricular myocytes from 1 to 2 day-old Sprague-Dawley rats were enzymatically dissociated, then subjected to Percoll gradient centrifugation and preplating to enrich for cardiomyocytes. After overnight culture in medium with 10% horse serum, cells were infected at a multiplicity of infection of 10, then cultured in serum-free medium for 24 to 48 hr (Oh et al., 2003). Where indicated, C2-ceramide (N-acetyl-D-sphingosine; ICN, Costa Mesa, Calif.), 5 mg/ml in dimethylsulfoxide (DMSO), was added at a final concentration of 20-50 μg/ml.

[12] = tested on: αMHC-TRF2 mice and non-transgenic littermates; test: Doxorubicin cardiomyopathy in αMHC-TRF2 mice and non-transgenic littermates; details: 15 mg/kg intraperitoneally
Description: Cardiac-specific transgenic mice were created by subcloning the TRF2 and dnTRF2 cDNAs behind the 5.5 kb mouse αMHC promoter (Subramaniam et al., 1991). The resultant plasmids were injected into the pronuclei of fertilized FVB/N oocytes, and tail DNA was used to screen for inheritance of the transgenes. Doppler and M-mode echocardiography were performed as described (Oh et al., 2003; and Minamino et al., 2002).
To test for cardiac protection, 10-12 week-old αLMHC-TRF2 mice (n=14) and non-transgenic littermates (n=14) were injected intraperitoneally with 15 mg/kg doxorubicin.

[13] = cultured cardiomyocytes, gene transfer or treatment

Compound: 5′-CCTGGGCTGCCGGCTCGAGC-3′ (all phosphorothioate, sugars by position and methylation of C not given here) [antisense TRF2]
- PARP cleavage [1]: PARP cleavage
- apoptosis [2]: apoptosis
- induction of HGK activity ([3]; antisense suppression of endogenous TRF2, antisense GFP as control): more than 50%
- increase of HGK kinase activity ([3]; mouse cardiomyocytes, antisense oligo transfection, HGK adenovirus): 1.5 fold
- Chk2 activation [4]: Chk2 activation
- TRF2 protein level [5]: specifically reduced
- telomere shortening [6]: telomere shortening
- endogenous TRF2 expression [7]: inhibited endogenous TRF2 expression effectively

- HGK activity after agonist [3]: activated
Compound: OO [H2O2]
- telomere erosion / shortening [8]: induced
- PARP cleavage [9, 13]: induced
- time to decrease of endogenous TRF2 ([10]; cardiomyocytes, 100 μM H2O2): ≤ 2 h
- apoptosis (hypodiploid DNA) [11, 13]: induced

Compound: CCCCCCCCCCCCC/C=C/[C@@H](O)[C@H](CO)NC(C)=O [ceramide, N-acetyl-D-sphingosine]
- TRF2 levels ([10]; viral delivery or ceramide treatment): reduced TRF2 levels
- HGK activity after agonist [3]: activated further; also recorded: potent activator of HGK
- increase in hypodiploid myocytes ([11]; ceramide treatment): 20 fold

Compound: COc1cccc2c1C(=O)c1c(O)c3c(c(O)c1C2=O)C[C@@](O)(C(=O)CO)C[C@@H]3O[C@H]1C[C@H](N)[C@H](O)[C@H](C)O1 [doxorubicin]
- time until loss of PARP (caspase-3 activation) was comparable to the TRF2 loss ([9]; cardiac myocytes, 1 μM doxorubicin): 48 h
- TRF2 protein expression decreased ([10]; cardiac myocytes, 1 μM doxorubicin, within 8 hr): 50%
- induction of cardiac myocyte apoptosis (hypodiploid myocytes) ([11]; doxorubicin administered to myocytes): induced cardiac myocyte apoptosis
- survival as of day 16 ([12]; littermate controls): 7%
- mice that had died by 7 days after injection ([12]; non-transgenic mice, n=14): 63%
- survival as of day 16 ([12]; αMHC-TRF2 mice): 36%
- deaths by 7 days after injection ([12]; αMHC-TRF2 mice, n=14): no deaths
